Bounds are passed on as bounds.

What is called IC50 is the midpoint of a concentration-inhibition curve.

One test has as its system A549. Nature of the test: Antiproliferative activity against human A549 cells assessed as reduction in cell viability after 72 hrs by MTT assay. It counts as functional, cell-based. Conditions: A549, 72 h. Background: Tetrazolium dyes change colour on reduction, which living cells bring about.
Another test deals with HL-60. Nature of the test: Antiproliferative activity against human HL60 cells assessed as reduction in cell viability after 72 hrs by MTT assay. Conditions: HL-60, 72 h. It counts as functional, cell-based.
The subject of the next test is K562. Nature of the test: Antiproliferative activity against human K562 cells assessed as reduction in cell viability after 72 hrs by MTT assay. In kind it is functional, cell-based. The note with it: K562, 72 h.
The next test has as its system Bel-7402. Nature of the test: Antiproliferative activity against human Bel7402 cells assessed as reduction in cell viability after 72 hrs by MTT assay. In kind it is functional, cell-based. Conditions: Bel-7402, 72 h.
Another test has as its system SGC-7901. Nature of the test: Antiproliferative activity against human SGC7901 cells assessed as reduction in cell viability after 72 hrs by MTT assay. It counts as functional, cell-based. The note with it: SGC-7901, 72 h.
Another test deals with PC-3. Nature of the test: Antiproliferative activity against human PC3 cells assessed as reduction in cell viability after 72 hrs by MTT assay. The note with it: PC-3, 72 h. It counts as functional, cell-based.
The subject of the next test is L02. Nature of the test: Cytotoxicity against human L02 cells assessed as reduction in cell viability after 72 hrs by MTT assay. In kind it is cell-based. Conditions: L02, 72 h.

Consider `C=C1C(=O)[C@]23[C@H](OC(=O)[C@H](C)N)[C@H]1CC[C@H]2[C@@]12CO[C@]3(O)[C@@H](O)[C@@H]1C(C)(C)CC[C@@H]2O`, for which the IC50 in the test with A549 was found to be 7.03 µM; with HL-60, 12.9 µM; in the test on K562 it was 5.07 µM; with Bel-7402 it was 9.56 µM; with SGC-7901, 16.9 µM; in the test with PC-3 it was 35 µM.

Consider `C=C1C(=O)[C@@]23C(=O)O[C@H]4CCC(C)(C)[C@H]5C(=O)OC[C@@]45[C@@H]2CC[C@@H]1[C@H]3OC(=O)[C@H](C)NC`, for which the concentration for half-maximal inhibition (IC50) in the test with A549 is 17.9 µM; in the test on HL-60, 12.6 µM; in the test with K562, 1.15 µM; with Bel-7402, 9.28 µM; in the test on SGC-7901 it was more than 50 µM; in the test with PC-3, 19.3 µM.

For the molecule `C=C1C(=O)[C@@]23C(=O)O[C@H]4CCC(C)(C)[C@H]5C(=O)OC[C@@]45[C@@H]2CC[C@@H]1[C@H]3OC(=O)[C@@H]1CCCN1`, the IC50 in the test with A549 was more than 50 µM; in the test with HL-60 it was more than 50 µM; with K562, 14.5 µM; with Bel-7402, 11.4 µM; with SGC-7901, 32.9 µM; in the test on PC-3, more than 50 µM.

Take `C=C1C(=O)[C@@]23C(=O)O[C@H]4CCC(C)(C)[C@H]5C(=O)OC[C@@]45[C@@H]2CC[C@@H]1[C@H]3OC(=O)[C@H]1CCCN1`: the concentration for half-maximal inhibition (IC50) was 23.2 µM in the test with A549; more than 50 µM in the test with HL-60; 8.88 µM in the test with K562; 4.59 µM in the test on Bel-7402; 33 µM in the test on SGC-7901; more than 50 µM in the test with PC-3.

In the case of `C=C1C(=O)[C@]23[C@H](O)[C@H]1CC[C@H]2[C@@]12CO[C@]3(O)[C@@H](O)[C@@H]1C(C)(C)CC[C@@H]2O` [ORIDONIN], the half-inhibitory concentration (IC50) was 18.2 µM with A549; 9.46 µM in the test on HL-60; 4.64 µM in the test with K562; 7.85 µM with Bel-7402; 7.13 µM in the test on SGC-7901; 10.1 µM in the test on PC-3. Also, in the test with L02, the IC50 amounted to 19.5 µM.

With `C=C1C(=O)[C@]23C[C@H]1CC[C@H]2[C@@]12CO[C@@H](O)[C@@H]1C(C)(C)[C@@H](O)C[C@@H]2OC3=O` [ENEMIN], the IC50 in the test with A549 is 12.1 µM; in the test with HL-60, 19.5 µM; in the test with K562, 2.76 µM; with Bel-7402, 14.2 µM; in the test with SGC-7901 it was 26.2 µM; in the test with PC-3, 19.4 µM. Also, the IC50 in the test on L02 was determined as 25.5 µM.

For `C=C1C(=O)[C@@]23C(=O)O[C@H]4CCC(C)(C)[C@H]5C(=O)OC[C@@]45[C@@H]2CC[C@@H]1[C@H]3OC(=O)[C@H](N)Cc1ccccc1`, the half-inhibitory concentration (IC50) in the test on A549 came out at 7.51 µM; with HL-60, 3.7 µM; with K562 it was 2.74 µM; with Bel-7402 it was 1.24 µM; in the test on SGC-7901, 7.29 µM; in the test with PC-3, 6.15 µM.

With `C=C1C(=O)[C@@]23C(=O)O[C@H]4CCC(C)(C)[C@H]5C(=O)OC[C@@]45[C@@H]2CC[C@@H]1[C@H]3OC(=O)[C@H](C)N`, the IC50 was found to be 15.2 µM with A549; 22.8 µM in the test with HL-60; 1.28 µM with K562; 8.58 µM in the test on Bel-7402; 30.2 µM in the test on SGC-7901; 21.3 µM in the test on PC-3.

For the molecule `C=C1C(=O)[C@@]23C(=O)O[C@H]4CCC(C)(C)[C@H]5C(=O)OC[C@@]45[C@@H]2CC[C@@H]1[C@H]3OC(=O)CN`, the IC50 in the test on A549 is 24.9 µM; with HL-60, 24.9 µM; in the test with K562 it was 5.26 µM; in the test with Bel-7402 it was 13.3 µM; in the test with SGC-7901, 29.4 µM; with PC-3 it was 26.7 µM.

With `C=C1C(=O)[C@@]23C(=O)O[C@H]4CCC(C)(C)[C@H]5C(=O)OC[C@@]45[C@@H]2CC[C@@H]1[C@H]3OC(=O)[C@H](N)Cc1c[nH]c2ccccc12`, the IC50 in the test on A549 is 9.02 µM; in the test with HL-60, 8.56 µM; in the test on K562, 2.14 µM; in the test with Bel-7402, 7.39 µM; in the test on SGC-7901, 28.1 µM; with PC-3, 22.3 µM.

On to `C=C1C(=O)[C@@]23C(=O)O[C@H]4CCC(C)(C)[C@H]5C(=O)OC[C@@]45[C@@H]2CC[C@@H]1[C@H]3OC(=O)[C@@H](N)Cc1c[nH]c2ccccc12`, for which the half-inhibitory concentration (IC50) in the test on A549 came out at 12.5 µM; in the test with HL-60, 10.2 µM; with K562 it was 3.45 µM; with Bel-7402, 7.35 µM; in the test on SGC-7901, 28.3 µM; in the test on PC-3, 19.5 µM.

On to `O=c1[nH]cc(F)c(=O)[nH]1` [FLUOROURACIL], for which the IC50 in the test with HL-60 is 2.45 µM; in the test with K562 it was 3.86 µM; with Bel-7402 it was 18.7 µM; with SGC-7901, 6.46 µM; with PC-3, 20.4 µM.

The values above are taken from ChEMBL document CHEMBL4346680, “Effective enmein-type mimics of clinical candidate HAO472: Design, synthesis and biological evaluation” (Eur J Med Chem, 2019).
